Structures can show the parent of a compound that is named as a salt. Where two headings read alike, the source gives them in different places.
Tested on: phenylquinone writhing in mice
Experiment: Phenylquinone Writhing Assay (analgesia)
Type: in vivo, mouse (Carworth CF1 male mice)
Details: Mus musculus, po, read-out: Phenylquinone Writhing Assay (% Control), percent analgesia; for responders at 60 mg/kg: 60 mg/kg oral; for responders at 25 mg/kg: 25 mg/kg oral; for responders at 50 mg/kg: 50 mg/kg oral; for responders at 100 mg/kg: 100 mg/kg oral; for responders at 30 mg/kg: 30 mg/kg oral; for responders at 75 mg/kg: 75 mg/kg oral
Protocol: The phenylquinone writhing test was employed to evaluate analgesic activity according to the following procedure:
Phenylquinone (phenyl-p-benzoquinone, No. 7104, Eastman Organic Chemicals) is made up as a 0.02% aqueous solution in 5% ethyl alcohol. Phenylquinone solutions are made up fresh twice daily. Standard reference agents and the test compounds are dissolved or suspended in a 0.25% methylcellulose solution. A control group consisting of ten mice (Carworth CF1 male mice) are administered the 0.02% phenylquinone solution at a dose of 0.25 ml/mouse. The mice are housed individually and observed closely for ten minutes for exhibition of writhing. The onset of writhing occurs within three minutes and 100% of the mice must writhe within ten minutes. Test compounds are administered orally to groups of ten mice. The volume given is 0.01 ml/gram of body weight. Activity can be studied at 15, 30, 60, and 120 minutes after oral administration. After the designated time interval of a dose group has elapsed, the mice are challenged with phenylquinone intraperitoneally. Complete blocking of the writhing syndrom for the ten minute observation period in any one mouse is considered a positive analgesic response for that mouse. Conversely, if any mouse writhes definitely once it is considered not to be protected. The number of mice not writhing in group multiplied by ten equals percent analgesia for that dose at that time interval.

Structure (SMILES) | responders at 100 mg/kg (0.25 h, 15 Min.) [%] | responders at 100 mg/kg (0.5 h, 30 Min.) [%] | responders at 100 mg/kg (1 h, 60 Min) [%] | other results
CSc1nncc(-c2cccc(Cl)c2)n1 [Example 15, 3-methylthio-5-(3'-chlorophenyl)-1,2,4-triazine] | – | – | – | responders at 60 mg/kg (0.25 h, 15 Min.): 10%
COc1nncc(-c2cccs2)n1 [Example 66, 3-methoxy-5-(2'-thienyl)-1,2,4-triazine] | – | – | – | responders at 25 mg/kg (0.25 h, 15 Min.): 20%; responders at 50 mg/kg (0.25 h, 15 Min.): 80%; responders at 60 mg/kg (0.25 h, 15 Min.): 100%; responders at 25 mg/kg (0.5 h, 30 Min.): 10%; responders at 50 mg/kg (0.5 h, 30 Min.): 50%; responders at 60 mg/kg (0.5 h, 30 Min.): 80%; responders at 50 mg/kg (1 h, 60 Min): 20%; responders at 60 mg/kg (1 h, 60 Min): 40%
NNc1nncc(-c2cccc(C(F)(F)F)c2)n1 [Example 67, 3-hydrazino-5-(3'-trifluoromethylphenyl)-1,2,4-triazine] | 10 | 60 | 40 | responders at 50 mg/kg (0.25 h, 15 Min.): 70%; responders at 25 mg/kg (0.5 h, 30 Min.): 20%; responders at 50 mg/kg (0.5 h, 30 Min.): 30%; responders at 25 mg/kg (1 h, 60 Min): 10%; responders at 50 mg/kg (1 h, 60 Min): 30%
COc1cccc(-c2cnnc(SC)n2)c1 [Example 68, 3-methylthio-5-(3'-methoxyphenyl)-1,2,4-triazine] | – | – | – | responders at 30 mg/kg (0.25 h, 15 Min.): 10%
COc1cccc(-c2cnnc(OC)n2)c1 [Example 69, 3-methoxy-5-(3'-methoxyphenyl)-1,2,4-triazine] | 10 | 20 | 10 | responders at 50 mg/kg (0.25 h, 15 Min.): 10%; responders at 50 mg/kg (0.5 h, 30 Min.): 20%; responders at 50 mg/kg (1 h, 60 Min): 20%
CSc1nncc(-c2ccc(Cl)s2)n1 [Example 70, 3-methylthio-5-(5'-chloro-2'-thienyl)-1,2,4-triazine] | 10 | 20 | 10 | responders at 50 mg/kg (0.25 h, 15 Min.): 10%; responders at 50 mg/kg (0.5 h, 30 Min.): 20%; responders at 50 mg/kg (1 h, 60 Min): 10%
CSc1nncc(-c2cccc3ccccc23)n1 [Example 71, 3-methylthio-5-(1'-naphthyl)-1,2,4-triazine] | – | 10 | 20 | –
CSc1nncc(-c2ccc(C)cc2)n1 [Example 72, 3-methylthio-(4'-methylphenyl)-1,2,4-triazine] | 20 | – | – | –
CSc1nncc(-c2ccc(Cl)cc2)n1 [Example 74, 3-methylthio-5-(4'-chlorophenyl)-1,2,4-triazine] | 10 | – | – | –
COc1nncc(-c2cccc(Cl)c2)n1 [Example 75, 3-methoxy-5-(3'-chlorophenyl)-1,2,4-triazine] | – | – | – | responders at 60 mg/kg (0.25 h, 15 Min.): 100%; responders at 60 mg/kg (0.5 h, 30 Min.): 90%; responders at 60 mg/kg (1 h, 60 Min): 70%
CSc1nnc(-c2ccco2)c(-c2ccco2)n1 [Example 76, 3-methylthio-5,6-bis-(2'-furyl)-1,2,4-triazine] | – | – | – | responders at 30 mg/kg (0.25 h, 15 Min.): 10%
NNc1nnc(-c2ccco2)c(-c2ccco2)n1 [Example 77, 3-hydrazino-5,6-bis-(2'-furyl)-1,2,4-triazine] | – | – | – | responders at 25 mg/kg (0.25 h, 15 Min.): 20%; responders at 75 mg/kg (0.25 h, 15 Min.): 20%; responders at 25 mg/kg (0.5 h, 30 Min.): 20%; responders at 75 mg/kg (0.5 h, 30 Min.): 10%; responders at 25 mg/kg (1 h, 60 Min): 20%; responders at 75 mg/kg (1 h, 60 Min): 10%
Cc1ccc(-c2nnc(C)nc2-c2ccc(C)cc2)cc1 [Example 78, 3-methyl-5,6-bis-(4'-methylphenyl)-1,2,4-triazine] | 50 | 80 | 50 | responders at 50 mg/kg (0.25 h, 15 Min.): 20%; responders at 50 mg/kg (0.5 h, 30 Min.): 20%; responders at 50 mg/kg (1 h, 60 Min): 20%
Cc1nnc(S(C)(=O)=O)nc1C [Example 79, 3-methylsulfonyl-5,6-dimethyl-1,2,4-triazine] | – | 30 | 30 | –
COc1ccc(-c2nnc(SC)nc2-c2ccc(OC)c(OC)c2)cc1OC [Example 80, 3-methylthio-5,6-bis(3',4'-dimethoxyphenyl)-1,2,4-triazine] | 10 | 10 | – | –
c1ccc(-c2nnc(-c3ccccn3)nc2-c2ccccc2)cc1 [Example 81, 3-(2'-pyridyl)-5,6-diphenyl-1,2,4-triazine] | 10 | 20 | – | –

Structure (SMILES) | responders at 100 mg/kg (0.25 h, 15 Min.) [%] | responders at 100 mg/kg (0.5 h, 30 Min.) [%] | responders at 100 mg/kg (1 h, 60 Min) [%] | other results
COc1ncc(-c2ccccc2)nn1 [Example 82, 3-methoxy-6-phenyl-1,2,4-triazine] | – | – | – | responders at 25 mg/kg (0.25 h, 15 Min.): 10%; responders at 50 mg/kg (0.25 h, 15 Min.): 10%; responders at 50 mg/kg (0.5 h, 30 Min.): 10%
COc1cc(-c2cnnc(SC)n2)ccc1OCc1ccccc1 [Example 83, 3-methylthio-5-(3'-methoxy-4'-benzyloxyphenyl)-1,2,4-triazine] | 10 | – | – | –
CSc1nncc(-c2c3ccccc3cc3ccccc23)n1 [Example 84, 3-methylthio-5-(9'-anthracenyl)-1,2,4-triazine] | – | 10 | 20 | –
COc1nncc(-c2c3ccccc3cc3ccccc23)n1 [Example 85, 3-methoxy-5-(9'-anthracenyl)-1,2,4-triazine] | 10 | – | – | –
CSc1nncc(-c2ccc3c(c2)OCO3)n1 [Example 86, 3-methylthio-5-(3',4'-methylenedioxyphenyl)-1,2,4-triazine] | 20 | – | – | –
CSc1nncc(C(c2ccccc2)c2ccccc2)n1 [Example 87, 3-methylthio-5-diphenylmethyl-1,2,4-triazine] | 10 | – | 10 | –
CCOc1ccc(-c2cnnc(SC)n2)cc1 [Example 88, 3-methylthio-5-(4'-ethoxyphenyl)-1,2,4-triazine] | 10 | – | – | –
COc1nncc(-c2c(C)cc(C)cc2C)n1 [Example 89, 3-methoxy-5-(2',4',6'-trimethylphenyl)-1,2,4-triazine] | 10 | – | 10 | –
Oc1nncc(-c2ccccc2)n1 [Example 90, 3-hydroxy-5-phenyl-1,2,4-triazine] | – | – | 20 | –
COc1ccc(-c2cnnc(OC)n2)cc1 [Example 91, 3-methoxy-5-(4'-methoxyphenyl)-1,2,4-triazine] | 30 | 10 | – | –
COc1nnc(-c2ccc(OC)c(OC)c2)c(-c2ccc(OC)c(OC)c2)n1 [Example 92, 3-methoxy-5,6-bis(3',4'-dimethoxyphenyl)-1,2,4-triazine] | 10 | 10 | – | –
COc1ccc(-c2nnc(SC)nc2-c2ccc(OC)cc2)cc1 [Example 93, 3-methylthio-5,6-bis(4'-methoxyphenyl)-1,2,4-triazine] | 20 | 30 | 30 | –
CC(C)Oc1nnc(-c2ccccc2)c(-c2ccccc2)n1 [Example 95, 3-isopropoxy-5,6-diphenyl-1,2,4-triazine] | 10 | 10 | 20 | –
COc1nnc(-c2ccc(Cl)cc2)c(-c2ccc(Cl)cc2)n1 [Example 96, 3-methoxy-5,6-bis(4'-chlorophenyl)-1,2,4-triazine] | – | 30 | 10 | –
CC(N)C(=O)NNc1nncc(-c2ccc(Cl)cc2)n1 (stereo not shown) [Example 114, N2-(5-p-chlorophenyl-1,2,4-triazin-3-yl) alanine hydrazide (dihydrobromide hydrate)] | – | – | – | responders at 50 mg/kg (0.25 h, 15 Min.): 50%; responders at 50 mg/kg (0.5 h, 30 Min.): 50%; responders at 50 mg/kg (1 h, 60 Min): 60%
NC(Cc1ccccc1)C(=O)NNc1nncc(-c2ccccc2)n1 (stereo not shown) [Example 116, N2-(5-phenyl-1,2,4-triazin-3-yl) phenylalanine hydrazide (dihydrobromide hydrate)] | 30 | 60 | 60 | –
